These results are taken from paper PMC7170507, “Biosynthesis of depsipeptides with a 3-hydroxybenzoate moiety and selective anticancer activities involves a chorismatase” (The Journal of Biological Chemistry, 2020).

Data set [1] concerns A549. Briefly: cells. Also on record: species or system human cancer cell lines; CCK8 cell viability assay, absorbance at 450 nm. The conditions noted are these: Homo sapiens, 72 h. The method, then:
(§1) Anticancer activities were evaluated by using human lung cancer cells PC9, human colorectal cancer cells Sw620, and human melanoma cells A375. Toxicity study was conducted by using three types of normal cells, 16HBE (an immortalized human bronchial epithelial cells), NCM460 (a normal human colon mucosal epithelial cell line), and HaCaT (a spontaneously immortalized keratinocyte cell line from adult human skin). All the cell lines were obtained from the Shanghai Institute of Cell Biology, Chinese Academy of Sciences. The cell cultivation media (Gibco) were supplemented with 10% fetal bovine serum, 100 units/ml penicillin, and 100 μg/ml streptomycin. The cells were maintained in a humidified atmosphere with 5% CO2 at 37 °C. Half-maximal inhibitory concentration (IC50) was determined by a CCK8 assay (Dojindo, Tokyo, Japan). Briefly, the cells were seeded in 96-well plates at a density of 3 × 10^3 cells/well and incubated for 24 h at 37 °C. Then the cells were treated with various concentrations of compound and incubated for 72 h. Afterward, 10 μl of CCK8 reagent was added to each well before a further incubation for 0.5–4.0 h at 37 °C. Finally, the absorbance of each well in the 96-well plate was measured at 450 nm using microplate reader. Because the 3-FAS moiety has been proposed to be the pharmacophore of anticancer activities in NATs ([3], [11]), we wished to know whether compounds 1–4 with the alternative 3-HBA moiety, instead of 3-FAS, would retain anticancer activities. The carcinoma cell lines of human lung (PC9), colon (Sw620), and melanoma (A375) were firstly selected to evaluate the activities of them, using as positive control the chemotherapeutic drug cisplatin. […] This is consistent with the activities previously shown for unantimycin A, which structurally differs from 1 at the C4 alkyl group and which has shown moderate cytotoxicity (IC50 = ∼10 μM) against human cervix epidermoid carcinoma, promyelocytic leukemia, and sarcoma cell lines ([13]). […] Further work will be required to establish convincingly that the apparently selective anticancer activities of 1–4 are endowed by the absence of binding to the quinone reduction site of the cytochrome bc1 complex, which makes antimycin A lethal to the mitochondrial respiratory chain ([12], [20]). Moreover, the broad-spectrum anticancer activities of 1–4 were evaluated by using six other carcinoma cell lines (Table S9).

The subject of data set [2] is HCT-8. Briefly: cells. Also on record: species or system human cancer cell lines; CCK8 cell viability assay, absorbance at 450 nm. The conditions noted are these: Homo sapiens, 72 h. How it is done: as §1
The test system of data set [3] is HT29. Description: cells. Also noted: species or system human cancer cell lines; CCK8 cell viability assay, absorbance at 450 nm. The conditions noted are these: Homo sapiens, HT-29, 72 h. How it is done:
as §1

For data set [4], the system named is Hela. Briefly: cells. Also on record: species or system human cancer cell lines; CCK8 cell viability assay, absorbance at 450 nm. The conditions noted are these: Homo sapiens, 72 h. How it is done: as §1
Data set [5] deals with HepG2. Briefly: cells. Also on record: species or system human cancer cell lines; CCK8 cell viability assay, absorbance at 450 nm. The conditions noted are these: Homo sapiens, 72 h. The method, then:
as §1

For data set [6], the system named is SGC7901. Description: cells. Also on record: species or system human cancer cell lines; CCK8 cell viability assay, absorbance at 450 nm. As to conditions: Homo sapiens, SGC-7901, 72 h. How it is done:
as §1

The subject of data set [7] is T1, C=C(O[C@@H]1C=C(C(=O)O)C=C[C@H]1O)C(=O)O.
T1 construct: catalytic Glu-325
Briefly: purified protein. Type of data set: biochemical, Streptomyces conglobatus. The conditions noted are these: 50 mM Tris-HCl pH 8.0, 0.5 μM enzyme, 50-300 μM chorismate, 0.5 mM NADH, LDH.

For the compound `CCC(C)C1OC(=O)C(C)(C)C(=O)C(Cc2ccccc2)OC(=O)C(C(C)C)OC(=O)C(NC(=O)c2cccc(O)c2)C(C)OC1=O` (centres unmarked) [compound 1, unantimycin B], the IC50 in data set [1] worked out at 7.7 ± 0.07 µM; in data set [2], 17.9 ± 1.4 µM; in data set [3] it was 19.4 ± 0.1 µM; in data set [4], 18.2 ± 0.2 µM; in data set [5], 13.4 ± 0.1 µM; in data set [6] it was 11.9 ± 0.1 µM.

For `CC(C)C1OC(=O)C(NC(=O)c2cccc(O)c2)C(C)OC(=O)C(C(C)C)OC(=O)C(C)(C)C(=O)C(Cc2ccccc2)OC1=O` (centres unmarked) [compound 3, 3], the IC50 in data set [1] stood at 2.32 ± 0.01 µM; in data set [2], 10.9 ± 0.8 µM; in data set [3], 17.6 ± 0.9 µM; in data set [4] it was 23 ± 0.4 µM; in data set [5], 17.5 ± 0.6 µM; in data set [6] it was 6.63 ± 0.17 µM.

As to `CCC(C)C1OC(=O)C(C)(C)C(O)C(Cc2ccccc2)OC(=O)C(C(C)C)OC(=O)C(NC(=O)c2cccc(O)c2)C(C)OC1=O` (centres unmarked) [compound 2, 2], the IC50 in data set [1] came to 2.99 ± 0.02 µM; in data set [2], 9.23 ± 0.16 µM; in data set [3] it was 14.9 ± 0.3 µM; in data set [4] it was 15.3 ± 1.5 µM; in data set [5], 15.2 ± 0.7 µM; in data set [6], 9.57 ± 0.22 µM.

Regarding Nat-hyg5 (Streptomyces conglobatus), in data set [7], the Km came to 54 ± 6 µM and the kcat stood at 0.084 ± 0.003 s⁻¹.

As for `CC(C)C1OC(=O)C(NC(=O)c2cccc(O)c2)C(C)OC(=O)C(C(C)C)OC(=O)C(C)(C)C(O)C(Cc2ccccc2)OC1=O` (centres unmarked) [compound 4, 4], the IC50 in data set [1] came to 2.97 ± 0.01 µM; in data set [2], 8.95 ± 0.13 µM; in data set [3], 17.2 ± 0.8 µM; in data set [4], 23.6 ± 0.5 µM; in data set [5], 18.3 ± 0.7 µM; in data set [6], 10.1 ± 0.3 µM.

For orientation: IC50 means the concentration needed to halve the response being measured. Broadly, the Km is the substrate concentration at which the rate is half of its maximum. By kcat is commonly meant the maximal rate divided by the concentration of active sites.
